Source: article PMC7979765, “trans-Translation inhibitors bind to a novel site on the ribosome and clear Neisseria gonorrhoeae in vivo” (Nature Communications, 2021)
≈ marks a conversion by molar mass, not a printed value. Where “and” joins values, the source holds several entries; their conditions need not be identical. Equal values may be shown once.

Legend:
HeLa cells [1] = assay: Mammalian cell cytotoxicity (CC50); assay type: cell-based, human; conditions: HeLa, replicates
Protocol: The half maximal cytotoxic concentration (CC50) of each compound against HeLa cells (ATCC CCL-2) was measured as previously described. […] The mean values for each biological replicate were averaged, and the CC50 was determined using a 4-parameter nonlinear curve fitting algorithm (GraphPad Prism). The average of the CC50s from two biological replicates was calculated and reported.

[2] = Aqueous solubility (nephelometric); assay type: physicochemical; conditions: for Solubility: single replicates
Escherichia coli = assay: microbe, parasite or virus in culture; assay type: cell-based; conditions: E. coli KLE701 (ΔtolC::tet); source data, individual replicates
Neisseria gonorrhoeae = assay: MIC, microbroth dilution, G77L medium; assay type: cell-based; conditions: Neisseria gonorrhoeae ATCC 49226; source data, individual replicates
HeLa cells [3] = assay: Mammalian cell cytotoxicity (CC50); assay type: cell-based, human; conditions: one value per replicate
[4] = Liver microsome stability, murine; assay type: in vitro ADME, mouse; conditions: murine liver microsomes; for Average MLMS t½: average of replicates; for MLMS t½: individual replicates
Protocol: To examine potential for first-pass metabolism of analogs in the liver, the stability of analogs in the presence of liver microsome preparations (Eurofins Discovery for human, dog and rat; Xenotech for mouse) was measured using the method of Kuhnz, et al.[50]. for murine studies and Oback for the dog, human and rat studies. The amount of parent compound remaining after incubation with microsomes in the presence of NADPH over a 30 min time range was measured using a reverse-phase liquid chromatography/mass spectroscopy method that was customized for each compound. Half-lives were calculated using linear regression analysis of several time points.

trans-translation = assay: microbe, parasite or virus in culture; assay type: cell-based, Escherichia coli; conditions: Eco Luc reporter, one value per replicate; read-out: IC50
Protocol: To verify that MBX-4132 retains activity as an inhibitor of trans-translation, we measured its dose-dependent activity against the non-stop luciferase reporter assay strain E. coli SB75 ΔtolC::kan (pluc-trpAt) essentially as described, with modifications. Briefly, serial 1.5-fold dilutions of MBX-4132 in DMSO were transferred to 96-well assay plates (Costar 3195), followed by the addition of 50 µl of an overnight culture of SB75 ΔtolC::kan (pluc-trpAt) that had been diluted to a final OD600 of 0.4 with LB media supplemented with 100 µg ampicillin/ml and 1 mM IPTG. […] The assay plates were incubated at room temperature for 2 h, and 50 µl of BrightGlo (Promega) bioluminescence reagent was added to each well. After 10 min incubation, bioluminescence intensity was measured using an Envision multi-label plate reader (Perkin Elmer). Each assay comprised three technical replicates, and the experiment was repeated three times. The fold induction for each MBX-4132 treated sample as compared to the DMSO-only sample was calculated for each technical replicate, and the average and standard deviation of the three technical was calculated. The IC50 was determined using a 4-parameter nonlinear curve fitting algorithm (GraphPad Prism).

| SMILES | NORMALIZED DATA (Fraction DMSO Control) (HeLa cells [1]; [CMPD] 0.78125 µM) | NORMALIZED DATA (Fraction DMSO Control) (HeLa cells [1]; [CMPD] 1.5625 µM) | NORMALIZED DATA (Fraction DMSO Control) (HeLa cells [1]; [CMPD] 3.125 µM) | NORMALIZED DATA (Fraction DMSO Control) (HeLa cells [1]; [CMPD] 6.25 µM) | NORMALIZED DATA (Fraction DMSO Control) (HeLa cells [1]; [CMPD] 12.5 µM) | NORMALIZED DATA (Fraction DMSO Control) (HeLa cells [1]; [CMPD] 25 µM) | NORMALIZED DATA (Fraction DMSO Control) (HeLa cells [1]; [CMPD] 50 µM) | NORMALIZED DATA (Fraction DMSO Control) (HeLa cells [1]; [CMPD] 100 µM) | Average solubility [2] | Solubility [2] | MIC (Escherichia coli) | MIC (Neisseria gonorrhoeae) | CC50 (HeLa cells [3]) | Average MLMS t½ [4] | MLMS t½ [4] | also measured |
| --- | --- | --- | --- | --- | --- | --- | --- | --- | --- | --- | --- | --- | --- | --- | --- | --- |
| O=C(Nc1nnc(-c2ccc(F)cc2)o1)C1CCCCC1 [MBX-3709] | 0.9843 Fraction DMSO Control and 0.9839 Fraction DMSO Control and 1.011 Fraction DMSO Control and 0.9844 Fraction DMSO Control and 1.002 Fraction DMSO Control and 0.9797 Fraction DMSO Control | 1.013 Fraction DMSO Control and 1.069 Fraction DMSO Control and 1.052 Fraction DMSO Control and 1.032 Fraction DMSO Control and 1.012 Fraction DMSO Control and 1.033 Fraction DMSO Control | 1.017 Fraction DMSO Control and 1.012 Fraction DMSO Control and 1.028 Fraction DMSO Control and 1.006 Fraction DMSO Control and 0.9958 Fraction DMSO Control and 1.035 Fraction DMSO Control | 0.9952 Fraction DMSO Control and 1.018 Fraction DMSO Control and 1.016 Fraction DMSO Control and 1.009 Fraction DMSO Control and 1.013 Fraction DMSO Control and 1.001 Fraction DMSO Control | 1.025 Fraction DMSO Control and 1.013 Fraction DMSO Control and 1.022 Fraction DMSO Control and 1.004 Fraction DMSO Control and 1.002 Fraction DMSO Control and 1.0412 Fraction DMSO Control | 1.006 Fraction DMSO Control and 1.033 Fraction DMSO Control and 1.009 Fraction DMSO Control and 1.014 Fraction DMSO Control and 0.9855 Fraction DMSO Control and 1.046 Fraction DMSO Control | 0.7814 Fraction DMSO Control and 0.7858 Fraction DMSO Control and 0.7422 Fraction DMSO Control and 0.8088 Fraction DMSO Control and 0.7466 Fraction DMSO Control and 0.7859 Fraction DMSO Control | 0.7348 Fraction DMSO Control and 0.7441 Fraction DMSO Control and 0.7211 Fraction DMSO Control and 0.7931 Fraction DMSO Control and 0.7717 Fraction DMSO Control and 0.7681 Fraction DMSO Control | 25 µM | 25 µM (≈ 7.23 µg/mL) | 28.931 µg/mL (≈ 100 µM) | 7.233 µg/mL and 3.616 µg/mL | ≥ 100 µM | <5 min | <5 min | – |
| O=C(Nc1nnc(-c2ccccc2)o1)c1ccc(Cl)cc1 [MBX-3910] | 1.08 Fraction DMSO Control and 1.097 Fraction DMSO Control and 1.14 Fraction DMSO Control and 1.04 Fraction DMSO Control and 1.054 Fraction DMSO Control and 1.05 Fraction DMSO Control | 1.101 Fraction DMSO Control and 1.0991 Fraction DMSO Control and 1.152 Fraction DMSO Control and 1.073 Fraction DMSO Control and 1.065 Fraction DMSO Control and 1.0674 Fraction DMSO Control | 1.088 Fraction DMSO Control and 1.064 Fraction DMSO Control and 1.13 Fraction DMSO Control and 1.029 Fraction DMSO Control and 1.037 Fraction DMSO Control and 1.067 Fraction DMSO Control | 1.079 Fraction DMSO Control (2×) and 1.139 Fraction DMSO Control and 1.051 Fraction DMSO Control and 1.03 Fraction DMSO Control and 1.024 Fraction DMSO Control | 1.036 Fraction DMSO Control and 1.056 Fraction DMSO Control and 1.0972 Fraction DMSO Control and 1.011 Fraction DMSO Control and 0.9941 Fraction DMSO Control and 0.9999 Fraction DMSO Control | 0.7722 Fraction DMSO Control and 0.7686 Fraction DMSO Control and 0.9894 Fraction DMSO Control and 0.8554 Fraction DMSO Control and 0.8395 Fraction DMSO Control and 0.8785 Fraction DMSO Control | 0.4225 Fraction DMSO Control and 0.4189 Fraction DMSO Control and 0.8248 Fraction DMSO Control and 0.6289 Fraction DMSO Control and 0.6212 Fraction DMSO Control and 0.6018 Fraction DMSO Control | 0.1921 Fraction DMSO Control and 0.2466 Fraction DMSO Control and 0.6012 Fraction DMSO Control and 0.4687 Fraction DMSO Control and 0.4717 Fraction DMSO Control and 0.4092 Fraction DMSO Control | 12.5 µM | 12.5 µM (≈ 3.75 µg/mL) | 0.9366 µg/mL (≈ 3.12 µM) | 0.2341 µg/mL and 0.1172 µg/mL | 42.1 µM and 40.9 µM and > 100 µM and 36.7 µM and 35.8 µM and 41 µM | 5 min | 5 min | – |
| CN(C(=O)c1ccc(Cl)cc1)c1nnc(-c2ccc(F)cc2)o1 [MBX-4076] | – | – | – | – | – | – | – | – | <3.1 µM | 3.1 µM and <3.1 µM (2×) | 8.293 µg/mL and 4.147 µg/mL and 2.073 µg/mL | 2.073 µg/mL (≈ 6.25 µM) | ≥ 100 µM | – | – | […] (Fraction DMSO Control) (HeLa cells [1]; [CMPD] 0.78125 µM): 1.197 Fraction DMSO Control and 0.943 Fraction DMSO Control and 1.027 Fraction DMSO Control; […] (Fraction DMSO Control) (HeLa cells [1]; [CMPD] 1.5625 µM): 1.13 Fraction DMSO Control and 0.9796 Fraction DMSO Control and 1.003 Fraction DMSO Control; […] (Fraction DMSO Control) (HeLa cells [1]; [CMPD] 3.125 µM): 1.12 Fraction DMSO Control and 0.9889 Fraction DMSO Control and 1.051 Fraction DMSO Control; […] (Fraction DMSO Control) (HeLa cells [1]; [CMPD] 6.25 µM): 1.086 Fraction DMSO Control and 0.9295 Fraction DMSO Control and 1.003 Fraction DMSO Control; […] (Fraction DMSO Control) (HeLa cells [1]; [CMPD] 12.5 µM): 1.084 Fraction DMSO Control and 0.9742 Fraction DMSO Control and 1.016 Fraction DMSO Control; […] (Fraction DMSO Control) (HeLa cells [1]; [CMPD] 25 µM): 1.061 Fraction DMSO Control and 0.9434 Fraction DMSO Control and 0.9966 Fraction DMSO Control; […] (Fraction DMSO Control) (HeLa cells [1]; [CMPD] 50 µM): 1.042 Fraction DMSO Control and 0.8579 Fraction DMSO Control and 0.8811 Fraction DMSO Control; […] (Fraction DMSO Control) (HeLa cells [1]; [CMPD] 100 µM): 0.7388 Fraction DMSO Control and 0.6179 Fraction DMSO Control and 0.6661 Fraction DMSO Control |
| O=C(Nc1nnco1)c1ccc(Cl)cc1 [MBX-4367] | 1.189 Fraction DMSO Control and 0.9321 Fraction DMSO Control and 1.018 Fraction DMSO Control | 1.137 Fraction DMSO Control and 0.9966 Fraction DMSO Control and 1.019 Fraction DMSO Control | 1.148 Fraction DMSO Control and 1.015 Fraction DMSO Control and 1.071 Fraction DMSO Control | 1.124 Fraction DMSO Control and 0.9955 Fraction DMSO Control and 1.053 Fraction DMSO Control | 1.13 Fraction DMSO Control and 1.055 Fraction DMSO Control and 1.044 Fraction DMSO Control | 1.072 Fraction DMSO Control and 0.9837 Fraction DMSO Control and 1.014 Fraction DMSO Control | 1.146 Fraction DMSO Control and 0.9608 Fraction DMSO Control and 0.9961 Fraction DMSO Control | 0.9043 Fraction DMSO Control and 0.7595 Fraction DMSO Control and 0.7474 Fraction DMSO Control | – | – | 22.362 µg/ml and >=22.362 µg/ml | 11.181 µg/mL (≈ 50 µM) | ≥ 100 µM | <5 min | <5 min | IC50 (trans-translation): ≥ 25 µM |
| O=C(Nc1nnc(-c2ccc(F)cc2)o1)c1ccccc1 [MBXC-4227] | 0.9526 Fraction DMSO Control and 0.9482 Fraction DMSO Control and 0.9778 Fraction DMSO Control and 0.9357 Fraction DMSO Control and 0.9509 Fraction DMSO Control and 0.9608 Fraction DMSO Control | 0.9867 Fraction DMSO Control and 1.034 Fraction DMSO Control and 1.028 Fraction DMSO Control and 0.9667 Fraction DMSO Control and 0.9674 Fraction DMSO Control and 0.99 Fraction DMSO Control | 1.005 Fraction DMSO Control and 1.004 Fraction DMSO Control and 0.9736 Fraction DMSO Control and 0.9997 Fraction DMSO Control and 1.016 Fraction DMSO Control and 1.006 Fraction DMSO Control | 0.9644 Fraction DMSO Control and 0.9925 Fraction DMSO Control and 0.9938 Fraction DMSO Control and 0.9804 Fraction DMSO Control and 0.9921 Fraction DMSO Control and 0.9636 Fraction DMSO Control | 0.8938 Fraction DMSO Control and 0.856 Fraction DMSO Control and 0.8425 Fraction DMSO Control and 0.8596 Fraction DMSO Control and 0.8611 Fraction DMSO Control and 0.8593 Fraction DMSO Control | 0.9039 Fraction DMSO Control and 0.9304 Fraction DMSO Control and 0.9129 Fraction DMSO Control and 0.9236 Fraction DMSO Control and 0.9122 Fraction DMSO Control and 0.9801 Fraction DMSO Control | 0.7944 Fraction DMSO Control and 0.8334 Fraction DMSO Control and 0.7734 Fraction DMSO Control and 0.7887 Fraction DMSO Control and 0.7582 Fraction DMSO Control and 0.8061 Fraction DMSO Control | 0.6978 Fraction DMSO Control and 0.688 Fraction DMSO Control and 0.6756 Fraction DMSO Control and 0.7089 Fraction DMSO Control and 0.7199 Fraction DMSO Control and 0.7396 Fraction DMSO Control | – | – | – | – | ≥ 100 µM | – | – | – |
